Where two headings read alike, the source gives them in different places.
Experiments:
[1] = system: E. coli 5702; assay: MIC, broth microdilution; format: cell-based, Escherichia coli
Protocol: (§1) The minimum inhibitory concentration (MIC) of colistin (as sulphate salt) and polymyxin B and their conjugates was determined using the broth microdilution method in MH broth in accordance with standard guidelines. Test organisms were suspended in MH broth (100 µL, 5 × 10^5 colony forming units (CFU)/mL) and incubated in 96-well microtitre plates in serial two-fold dilutions of the test compounds. […] Results were expressed as mode (n = 3). […] Selective activities of the polymyxins and OligoG–polymyxin conjugates were calculated as follows:Selectivity index (SI) = IC50 (μg/mL)/MIC (μg/mL).
(§2) To study the antimicrobial efficacy of test compounds under more clinically relevant conditions, the MIC protocol was performed using AS medium instead of MH broth. The plates were incubated with resazurin as described above.

[2] = system: P. aeruginosa R22; format: cell-based, Pseudomonas aeruginosa; conditions: resazurin read-out
Protocol: as §1
(§3) To account for turbidity caused by mucin, resazurin dye solution (30 µL, 0.01% w/v in dH2O) was added to each well and incubated for a further 3 h at 37 °C. Colour changes were observed and recorded.

[3] = system: A. baumannii 7789; format: cell-based, Acinetobacter baumannii
Protocol: as §1
(§4) In addition, alginate oligomer–colistin conjugates (3 mg/mL) were incubated in PBS at pH 7 containing bacterial alginate lyase (1 and 10 U/mL) at 37 °C for 24 h, before preparing microtitre plates as described above.
as §2

[4] = cited from earlier work
Protocol: In a clinical setting, binding of colistin to sputum biomolecules (e.g., mucin) in the airways could negatively impact antibiotic effectiveness and availability. […] A four-fold increase in the MIC of colistin was also reported when the assay was conducted in AS medium instead of MH broth, thought to be caused by bacterial growth disruption, structural modifications of lipopolysaccharides or direct colistin–mucin interactions. Alt ...

[5] = system: P. aeruginosa NH57388A; assay: MIC, broth microdilution; format: cell-based, Pseudomonas aeruginosa
Protocol: as §1, §2

[6] = system: P. aeruginosa MDR 301; format: cell-based, Pseudomonas aeruginosa
Protocol: as §1, §4, §2

[7] = system: E. coli AIM-1; assay: MIC, broth microdilution; format: cell-based, Escherichia coli
Protocol: as §1, §4

[8] = Two-compartment static dialysis bag model, diffusion; format: physicochemical; conditions: IC 10 mg/mL colistin base in PBS (5 mL), OC PBS (15 mL), 37 °C, 70 rpm, BCA assay, n = 3
Protocol: A two-compartment static dialysis bag model (adapted from Azzopardi et al.) was used to study the PK–PD profile of OligoG–colistin conjugates. First, the ability of the dialysis membrane to control diffusion of test compounds was assessed. […] The aseptically sealed beaker was incubated (37 °C, 70 rpm) for 48 h. Samples were collected at various time points from each compartment and stored at −20 °C prior to analysis of colistin content by BCA assay.

[9] = system: K. pneumoniae IR25; format: cell-based, Klebsiella pneumoniae; conditions: resazurin read-out
Protocol: as §1, §3

[10] = system: A. baumannii 7789; assay: Time-to-kill (TTK) in PK–PD model; format: cell-based, Acinetobacter baumannii; conditions: 0.25 µg/mL colistin base (colistin sulphate at MIC; OligoG–E–colistin at 2 × MIC), n = 3
Protocol: A modified experimental set-up was used to investigate the concentration- and time-dependent antimicrobial activity of test compounds using a TTK assay (48 h). […] The OC contained MH broth inoculated with A. baumannii 7789 (5 × 10^5 CFU/mL). Samples were collected from the OC (0, 2, 4, 6, 24 and 48 h) and colony counts (CFU/mL) determined using drop counts. Treatments were considered bactericidal if the reduction in viable bacterial counts was ≥3 log10 CFU/mL (equivalent to 99.9% of the initial inoculum) and bacteriostatic if the decrease was <3 log10 CFU/mL [33, 34]. Growth (no test compounds) and sterility (no bacteria) controls were also performed.

[11] = system: P. aeruginosa MDR 301; assay: Bacterial growth curves (48 h); format: cell-based, Pseudomonas aeruginosa; conditions: absorbance 600 nm hourly for 48 h, n = 3
From the text: Results were expressed as mean values (n = 3).

[12] = system: E. coli IR57; format: cell-based, Escherichia coli
Protocol: as §1, §3, §2

[13] = system: P. aeruginosa R22; assay: Biofilm formation assay (CLSM, COMSTAT); format: cell-based, Pseudomonas aeruginosa; conditions: 24 h
Protocol: To analyse the effect of test compounds on biofilm formation, solutions of test compounds in MH broth were inoculated (1:10) with P. aeruginosa R22 (standardised to 10^7 CFU/mL) in a Greiner glass-bottomed optical 96-well plate. The plate was then wrapped in parafilm and incubated (37 °C, 20 rpm) for 24 h. The supernatant was carefully removed and replaced with 10% v/v LIVE/DEAD stain in PBS prior to imaging. CLSM of Syto 9 (λex/λem maximum, 480/500 nm) and propidium iodide (λex/λem maximum, 490/635 nm) was performed using a Leica SP5 confocal microscope with ×63 lens (under oil) and a step size of 0.79 µm. Z-stack CLSM images were analysed using COMSTAT image analysis software and results were expressed as mean ± SEM (n = 15).

[14] = system: A. baumannii MDR ACB; format: cell-based, Acinetobacter baumannii; conditions: resazurin read-out
Protocol: as §1, §3

[15] = AS (artificial sputum) medium, resazurin read-out
[16] = MH broth (Table S7 comparison with AS medium)
[17] = MH broth + porcine stomach (type II) mucin 0.2% w/v
[18] = MH broth + porcine stomach (type II) mucin 2% w/v
[19] = alginate lyase in MH broth, 0 U/mL
[20] = alginate lyase in MH broth, 1 U/mL
[21] = alginate lyase in MH broth, 10 U/mL
[22] = pre-incubation with alginate lyase 0 U/mL (3 mg/mL in PBS pH 7, 37 °C, 24 h), then MIC in MH broth
[23] = pre-incubation with alginate lyase 1 U/mL (3 mg/mL in PBS pH 7, 37 °C, 24 h), then MIC in MH broth
[24] = pre-incubation with alginate lyase 10 U/mL (3 mg/mL in PBS pH 7, 37 °C, 24 h), then MIC in MH broth

Q: What does the source list for colistin sulphate?
A: MIC [1, 15]: 0.125 μg/mL Drug Base; MIC [1, 16]: 0.031 μg/mL Drug Base; MIC [2, 17]: 2 μg/mL Drug Base; MIC [2, 18]: 16 μg/mL Drug Base; MIC ([2]; MH broth, mucin 0%): 0.5 μg/mL Drug Base; MIC [3, 15]: 1 μg/mL Drug Base; MIC [3, 16]: 0.25 μg/mL Drug Base; MIC [3, 19]: 0.002 μg/mL Drug Base; MIC [3, 20]: 0.004 μg/mL Drug Base; MIC [3, 21]: 0.004 μg/mL Drug Base; MIC [3, 22]: 0.002 μg/mL Drug Base; MIC [3, 23]: 0.002 μg/mL Drug Base; MIC [3, 24]: 0.002 μg/mL Drug Base; increase in MIC values when mucin was added to the bacterial culture medium [4]: > 100 fold; MIC [5, 15]: 1 μg/mL Drug Base; MIC [5, 16]: 0.25 μg/mL Drug Base; MIC [6, 15]: 2 μg/mL Drug Base; MIC [6, 16]: 0.5 μg/mL Drug Base; MIC [6, 19]: 0.063 μg/mL Drug Base; MIC [6, 20]: 0.063 μg/mL Drug Base; MIC [6, 21]: 0.25 μg/mL Drug Base; MIC [6, 22]: 0.063 μg/mL Drug Base; MIC [6, 23]: 0.063 μg/mL Drug Base; MIC [6, 24]: 0.125 μg/mL Drug Base; MIC [7, 19]: 0.00006 μg/mL Drug Base; MIC [7, 20]: 0.00006 μg/mL Drug Base; MIC [7, 21]: 0.0002 μg/mL Drug Base; MIC ([7]; broth microdilution, MH broth, 5 × 10^5 CFU/mL, 16–20 h, mode (n = 3)): <0.008 μg/mL Drug Base; MIC [7, 22]: 0.00006 μg/mL Drug Base; MIC [7, 23]: 0.001 μg/mL Drug Base; MIC [7, 24]: 0.0002 μg/mL Drug Base; time at which 1 mg/mL in the OC was reached [8]: 2.83 h; MIC [9, 17]: 1 μg/mL Drug Base; MIC [9, 18]: 64 μg/mL Drug Base; reduction in viable bacterial counts after 4 h [10]: < 3 log10 CFU/mL; concentration required for growth inhibition (up to >48 h) [11]: ≥ 8 × MIC; MIC [12, 15]: 0.125 μg/mL Drug Base; MIC [12, 16]: 0.125 μg/mL Drug Base; MIC ([12]; MH broth + porcine stomach (type II) mucin 0.2% w/v, resazurin read-out): 1 μg/mL Drug Base; MIC ([12]; MH broth + porcine stomach (type II) mucin 2% w/v, resazurin read-out): 2 μg/mL Drug Base; MIC ([12]; MH broth, mucin 0%, resazurin read-out): 0.125 μg/mL Drug Base; biofilm biomass compared to untreated control ([13]; 2 × MIC (colistin sulphate up to 2 × MIC), n = 15): no significant change; biofilm roughness ([13]; conjugates ≥MIC, colistin sulphate MIC, n = 15, p < 0.05): significantly increased; MIC [14, 17]: 1 μg/mL Drug Base; MIC [14, 18]: 16 μg/mL Drug Base; MIC ([14]; MH broth, mucin 0%): 0.5 μg/mL Drug Base

Source: paper PMC7696216, “Bi-Functional Alginate Oligosaccharide–Polymyxin Conjugates for Improved Treatment of Multidrug-Resistant Gram-Negative Bacterial Infections” (Pharmaceutics, 2020)
